# Measured values as given in PMC12136031 (Science Advances, 2025).
# Where two headings read alike, the source gives them in different places.
# Columns and labels:
# SARS-CoV-2 = experiment: In vivo hamster SARS-CoV-2 infection assay; set-up: species or system Syrian golden hamster
# [1] = test system: SARS-CoV-2 (USA-WA-1/2020); type: in vivo, K18-hACE2 mice; settings: for Survival (mice survived): BID thereafter, until day 10
# Vero E6 cells = settings: read-out: Cytotoxicity CC50 Vero E6 MEM
smiles,measurement,setting,value
"Cl.c1ccc2c(Nc3ccc4[nH]ccc4c3)nc(-c3ccncc3)nc2c1 [BC18630, N-1H-indol-5-yl-2-pyridin-4-ylquinazolin-4-amine hydrochloride]",NP-positive epithelial staining (IHC of lung slices),SARS-CoV-2; 4 dpi,notably reduced
same,Observed levels of lung injury,SARS-CoV-2; H&E histology,mitigated
same,Lung viral load reduction,"SARS-CoV-2; higher dose (50 mg/kg oral BID), 4 and 6 dpi",> 90%
same,Lung viral titer (PFU),"SARS-CoV-2; oral BID 20 and 50 mg/kg, all time points (2, 4, 6 dpi)",dose-dependently reduced
same,Viral titer in mouse lungs,"[1]; 3 dpi, both treatments (pre and post), 40 mg/kg oral BID",substantialy decreased
same,TFEB IHC signal in the airways,"[1]; mouse lung, 6 dpi",increase
same,Survival (mice survived),[1]; post-treat: 40 mg/kg 12 hours after infection,2/5
same,Survival (mice survived),[1]; pre-treat: 40 mg/kg 24 hours before infection,3/5
same,CC50,Vero E6 cells,> 10 µM
